How the values were obtained:
Nitric oxide synthase 3 = molecular target: T1, Nitric oxide synthase 3 (Homo sapiens, UniProt P29474); assay: Inhibitory concentration against recombinant human Endothelial nitric oxide synthase
T1 sequence (P29474 whole entry): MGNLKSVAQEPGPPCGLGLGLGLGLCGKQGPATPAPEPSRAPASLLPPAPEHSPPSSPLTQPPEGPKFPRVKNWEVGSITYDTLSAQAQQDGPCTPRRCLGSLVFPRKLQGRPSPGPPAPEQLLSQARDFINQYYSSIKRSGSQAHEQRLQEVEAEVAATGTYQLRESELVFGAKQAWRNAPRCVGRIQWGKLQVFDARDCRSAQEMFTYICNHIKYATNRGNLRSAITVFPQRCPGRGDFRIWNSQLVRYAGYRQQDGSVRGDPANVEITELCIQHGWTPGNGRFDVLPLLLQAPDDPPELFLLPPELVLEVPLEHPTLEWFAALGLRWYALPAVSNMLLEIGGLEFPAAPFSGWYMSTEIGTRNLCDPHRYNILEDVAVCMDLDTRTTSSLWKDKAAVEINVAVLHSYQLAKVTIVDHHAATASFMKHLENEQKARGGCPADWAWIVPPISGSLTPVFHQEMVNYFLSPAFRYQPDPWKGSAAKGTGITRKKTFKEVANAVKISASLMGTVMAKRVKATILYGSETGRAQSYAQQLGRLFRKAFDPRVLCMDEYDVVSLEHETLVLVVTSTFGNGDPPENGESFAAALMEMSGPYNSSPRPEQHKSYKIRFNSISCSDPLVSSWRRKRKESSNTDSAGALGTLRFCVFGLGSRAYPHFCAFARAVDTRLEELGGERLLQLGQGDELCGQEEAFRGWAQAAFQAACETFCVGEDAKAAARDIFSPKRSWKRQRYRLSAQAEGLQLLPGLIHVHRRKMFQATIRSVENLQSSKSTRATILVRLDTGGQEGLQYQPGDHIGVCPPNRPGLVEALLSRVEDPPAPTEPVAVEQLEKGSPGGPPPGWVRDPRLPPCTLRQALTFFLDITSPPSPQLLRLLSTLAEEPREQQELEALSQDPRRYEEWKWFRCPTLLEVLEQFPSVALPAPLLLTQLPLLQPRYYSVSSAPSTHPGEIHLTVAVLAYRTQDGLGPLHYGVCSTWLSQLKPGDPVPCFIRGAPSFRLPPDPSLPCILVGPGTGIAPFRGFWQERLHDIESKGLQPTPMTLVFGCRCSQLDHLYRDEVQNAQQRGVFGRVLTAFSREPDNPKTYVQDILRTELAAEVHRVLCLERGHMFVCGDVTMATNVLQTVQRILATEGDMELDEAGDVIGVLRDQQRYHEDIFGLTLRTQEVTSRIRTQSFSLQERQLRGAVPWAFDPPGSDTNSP

Nitric oxide synthase 1 = Nitric oxide synthase 1 (Homo sapiens, UniProt P29475); assay: Inhibitory concentration against recombinant human (neuronal nitric oxide synthase) n-NOS
Nitric oxide synthase 1, sequence (P29475 whole entry): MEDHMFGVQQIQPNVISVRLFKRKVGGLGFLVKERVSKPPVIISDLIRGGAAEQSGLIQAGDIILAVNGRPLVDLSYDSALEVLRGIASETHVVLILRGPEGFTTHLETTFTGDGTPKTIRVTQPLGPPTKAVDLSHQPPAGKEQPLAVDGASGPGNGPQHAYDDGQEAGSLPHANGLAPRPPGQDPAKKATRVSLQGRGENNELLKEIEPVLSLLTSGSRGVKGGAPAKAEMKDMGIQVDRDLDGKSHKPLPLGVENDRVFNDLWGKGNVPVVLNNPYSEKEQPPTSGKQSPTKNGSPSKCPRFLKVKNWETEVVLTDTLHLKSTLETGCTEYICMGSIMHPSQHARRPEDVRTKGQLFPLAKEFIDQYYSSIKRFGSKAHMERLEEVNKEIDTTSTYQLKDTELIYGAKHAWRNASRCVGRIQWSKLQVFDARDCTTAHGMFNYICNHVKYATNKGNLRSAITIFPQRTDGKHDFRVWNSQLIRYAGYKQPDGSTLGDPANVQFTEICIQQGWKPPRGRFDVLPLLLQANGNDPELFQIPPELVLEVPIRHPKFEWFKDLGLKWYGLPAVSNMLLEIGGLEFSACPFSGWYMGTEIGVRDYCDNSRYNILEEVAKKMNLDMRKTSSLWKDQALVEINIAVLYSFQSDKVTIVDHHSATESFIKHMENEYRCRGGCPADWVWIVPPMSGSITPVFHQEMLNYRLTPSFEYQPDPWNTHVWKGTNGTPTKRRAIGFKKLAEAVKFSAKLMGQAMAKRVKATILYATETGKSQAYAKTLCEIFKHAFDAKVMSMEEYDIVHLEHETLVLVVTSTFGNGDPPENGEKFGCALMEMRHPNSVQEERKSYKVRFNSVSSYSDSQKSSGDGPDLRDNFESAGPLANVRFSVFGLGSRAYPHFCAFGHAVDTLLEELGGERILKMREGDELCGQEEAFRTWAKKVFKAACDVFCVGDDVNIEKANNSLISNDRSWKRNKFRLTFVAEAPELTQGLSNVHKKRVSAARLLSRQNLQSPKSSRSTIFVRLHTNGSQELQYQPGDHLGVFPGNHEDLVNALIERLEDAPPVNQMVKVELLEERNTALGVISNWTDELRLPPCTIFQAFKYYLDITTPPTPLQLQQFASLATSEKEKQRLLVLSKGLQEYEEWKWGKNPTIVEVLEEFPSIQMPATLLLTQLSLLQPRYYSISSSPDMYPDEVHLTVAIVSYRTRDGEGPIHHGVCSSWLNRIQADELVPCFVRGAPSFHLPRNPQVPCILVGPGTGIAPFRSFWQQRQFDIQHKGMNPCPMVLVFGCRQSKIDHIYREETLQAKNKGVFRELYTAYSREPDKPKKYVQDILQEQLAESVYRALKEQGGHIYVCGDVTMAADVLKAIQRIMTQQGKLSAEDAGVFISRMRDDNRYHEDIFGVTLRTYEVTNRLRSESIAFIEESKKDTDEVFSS

[1] = molecular target: Nitric oxide synthase, inducible (Homo sapiens, UniProt P35228); assay: Inhibitory concentration against human Inducible nitric oxide synthase
Nitric oxide synthase, inducible, sequence (P35228 whole entry): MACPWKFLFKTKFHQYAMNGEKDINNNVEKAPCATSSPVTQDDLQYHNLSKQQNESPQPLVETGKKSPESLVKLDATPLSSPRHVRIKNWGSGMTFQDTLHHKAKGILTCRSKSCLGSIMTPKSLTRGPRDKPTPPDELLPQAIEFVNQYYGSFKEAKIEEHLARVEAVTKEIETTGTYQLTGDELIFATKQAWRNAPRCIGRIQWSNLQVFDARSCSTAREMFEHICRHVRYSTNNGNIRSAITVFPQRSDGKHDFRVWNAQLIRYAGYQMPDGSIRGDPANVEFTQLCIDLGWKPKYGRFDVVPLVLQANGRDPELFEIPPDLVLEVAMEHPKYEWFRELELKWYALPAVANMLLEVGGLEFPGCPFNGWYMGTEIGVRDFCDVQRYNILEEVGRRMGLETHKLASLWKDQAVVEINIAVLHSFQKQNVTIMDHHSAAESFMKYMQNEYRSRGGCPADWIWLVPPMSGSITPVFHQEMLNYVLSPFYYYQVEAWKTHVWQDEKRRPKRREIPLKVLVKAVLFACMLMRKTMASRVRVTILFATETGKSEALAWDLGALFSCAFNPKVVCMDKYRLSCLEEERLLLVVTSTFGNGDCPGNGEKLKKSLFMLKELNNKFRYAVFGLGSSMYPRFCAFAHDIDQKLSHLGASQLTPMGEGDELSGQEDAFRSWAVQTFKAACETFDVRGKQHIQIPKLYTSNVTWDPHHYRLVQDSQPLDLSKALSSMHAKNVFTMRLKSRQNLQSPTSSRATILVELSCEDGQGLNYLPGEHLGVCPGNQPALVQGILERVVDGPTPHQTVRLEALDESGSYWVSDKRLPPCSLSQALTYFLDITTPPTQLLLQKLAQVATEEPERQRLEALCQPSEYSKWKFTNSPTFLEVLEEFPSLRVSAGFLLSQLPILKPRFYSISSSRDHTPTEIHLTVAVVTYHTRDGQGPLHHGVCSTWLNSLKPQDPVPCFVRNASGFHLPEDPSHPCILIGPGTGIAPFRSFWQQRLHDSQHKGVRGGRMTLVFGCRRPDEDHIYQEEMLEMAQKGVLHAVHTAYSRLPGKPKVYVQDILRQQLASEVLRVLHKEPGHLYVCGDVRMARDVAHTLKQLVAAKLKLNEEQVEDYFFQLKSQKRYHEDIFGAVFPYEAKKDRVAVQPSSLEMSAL

| Compound | IC50 (Nitric oxide synthase 3) [nM] | IC50 (Nitric oxide synthase 1) [nM] | IC50 [1] [nM] |
| --- | --- | --- | --- |
| N=C(Nc1ccc(CCNCc2cccc(Cl)c2)cc1)c1cccs1 | 3500 | 35 |  |
| NC1=Nc2cc(CCCNCc3cccc(Cl)c3)ccc2[C@H]2CCC[C@@H]12 | 9400 | 42 | 580 |

The next lines start with the values.

| IC50 (Nitric oxide synthase 3) [nM] | IC50 (Nitric oxide synthase 1) [nM] | IC50 [1] [nM] | Compound |
| --- | --- | --- | --- |
| 52000 | 170 | 3900 | CNCCOc1ccc2c(c1)N=C(N)[C@@H]1CCC[C@H]21 |
| 6700 | 48 | 530 | NC1=Nc2cc(CCNCc3cccc(Cl)c3)ccc2[C@H]2CCC[C@@H]12 |
| 9600 | 140 | 950 | NC1=Nc2cc(CNCc3cccc(Cl)c3)ccc2[C@H]2CCC[C@@H]12 |
| 8700 | 170 | 1600 | NC1=Nc2cc(CCNCc3cccc(Cl)c3)c(Cl)cc2[C@H]2CCC[C@@H]12 |
